Measurements taken from patent publication US20140357560A1, “PTH-CONTAINING THERAPEUTIC/PROPHYLACTIC AGENT FOR OSTEOPOROSIS, CHARACTERIZED IN THAT PTH IS ADMINISTERED ONCE A WEEK IN A UNIT DOSE OF 100 TO 200 UNITS” (ASAHI KASEI PHARMA CORPORATION, priority 2009, published 2014).
Structures can show the parent of a compound that is named as a salt.

How the values were obtained:
[1] = system: nausea and vomiting associated with administration of the test drug; assay: Working Example 2: drugs to treat nausea and vomiting associated with the test drug; conditions: for efficacy against nausea and vomiting associated with the test drug (summary): summary of Table 18
Source text: The administration period and efficacy of various drugs to treat nausea and vomiting associated with administration of the test drug were studied.

[2] = in vivo
Procedure: The serum calcium was measured at the start, after 12 weeks, after 24 weeks, after 48 weeks, and after 72 weeks. Serum calcium standard value: 8.4 to 10.4 mg/dL. The standard concomitant drug (610 mg of calcium, 400 IU of vitamin D3, and 30 mg of magnesium) was taken once a day after dinner from the time of consent to the end of the trial.

[3] = Working Example 1: serum calcium concentration / hypercalcemia; assay type: in vivo, human
Procedure: Both the 5 and 100 unit groups were administered two tablets of a calcium agent (containing 500 mg of precipitated calcium carbonate [200 mg as calcium] per tablet) once a day.

[4] = in vivo; remark: listed apart in the source
Procedure: The ratio of the urinary calcium value/urinary creatine value was compared before beginning administration and in the weeks of observation. The urinary calcium was measured at the start, after 12 weeks, after 24 weeks, after 48 weeks, and after 72 weeks.

[5] = system: osteoporosis patients having normal renal function, mild or moderate renal dysfunction; conditions: in vivo
[6] = 20 μg/day; blood samples 4 to 6 hours after administration; Non-patent Reference 1; cited from earlier work
[7] = conventional daily administration; moderate renal dysfunction; Non-patent Reference 32; cited from earlier work

**Q.** With `CCOc1cc(N)c(Cl)cc1C(=O)NCC1CN(Cc2ccc(F)cc2)CCO1` (stereo not shown) [Gasmotin, mosapride citrate] as the compound, how does the “efficacy against nausea and vomiting associated with the test drug (summary)” value (“efficacy” below) [1] read?
**A.** effective

**Q.** For `NC(N)=Nc1nc(CSCCC(N)=NS(N)(=O)=O)cs1` [Gaster D, famotidine], which Effective or ineffective ([1]; Event: Nausea, before or after test drug: Unknown) is on record?
**A.** Effective

**Q.** What about the “efficacy” value [1] of the same compound?
**A.** effective

**Q.** With `O=c1[nH]c2ccccc2n1CCCN1CCC(n2c(=O)[nH]c3cc(Cl)ccc32)CC1` [Nauzelin, domperidone] as the compound, how does the Effective or ineffective ([1]; Event: Nausea, given Before test drug, taken after breakfast, lunch, and dinner) read?
**A.** Effective

**Q.** And the Effective or ineffective ([1]; Event: Vomiting, given Before test drug, taken after breakfast, lunch, and dinner)?
**A.** Effective

**Q.** What about the “efficacy” value [1] of the same compound?
**A.** effective

**Q.** With `CN1CCN(CCCN2c3ccccc3Sc3ccc(Cl)cc32)CC1.O=C(O)/C=C\C(=O)O.O=C(O)/C=C\C(=O)O` [Novamine] as the compound, how does the Effective or ineffective ([1]; Event: Nausea, given Before test drug) read?
**A.** Ineffective

**Q.** With `CCN(CC)CCNC(=O)c1cc(Cl)c(N)cc1OC` [Primperan, metoclopramide] as the compound, how does the Effective or ineffective ([1]; Event: Nausea, given Before test drug, listed as Primperan tablet) read?
**A.** Ineffective

**Q.** What about the “efficacy” value [1] of the same compound?
**A.** effective

**Q.** For `Cc1c(OCC(F)(F)F)ccnc1C[S+]([O-])c1nc2ccccc2[nH]1` (stereo not shown) [Takepron OD, lansoprazole], which “efficacy” value [1] is on record?
**A.** effective

**Q.** What does the source list for `CC[C@H](C)[C@H](NC(=O)[C@H](CCC(=O)O)NC(=O)[C@H](CO)NC(=O)[C@@H](NC(=O)[C@@H](N)CO)C(C)C)C(=O)N[C@@H](CCC(N)=O)C(=O)N[C@@H](CC(C)C)C(=O)N[C@@H](CCSC)C(=O)N[C@@H](Cc1cnc[nH]1)C(=O)N[C@@H](CC(N)=O)C(=O)N[C@@H](CC(C)C)C(=O)NCC(=O)N[C@@H](CCCCN)C(=O)N[C@@H](Cc1cnc[nH]1)C(=O)N[C@@H](CC(C)C)C(=O)N[C@@H](CC(N)=O)C(=O)N[C@@H](CO)C(=O)N[C@@H](CCSC)C(=O)N[C@@H](CCC(=O)O)C(=O)N[C@@H](CCCN=C(N)N)C(=O)N[C@H](C(=O)N[C@@H](CCC(=O)O)C(=O)N[C@@H](Cc1c[nH]c2ccccc12)C(=O)N[C@@H](CC(C)C)C(=O)N[C@@H](CCCN=C(N)N)C(=O)N[C@@H](CCCCN)C(=O)N[C@@H](CCCCN)C(=O)N[C@@H](CC(C)C)C(=O)N[C@@H](CCC(N)=O)C(=O)N[C@@H](CC(=O)O)C(=O)N[C@H](C(=O)N[C@@H](Cc1cnc[nH]1)C(=O)N[C@@H](CC(N)=O)C(=O)N[C@@H](Cc1ccccc1)C(=O)O)C(C)C)C(C)C` [teriparatide acetate]?
**A.** corrected serum calcium value after administration, maximum [2]: 11.6 mg/dL; corrected serum calcium value after administration, minimum [2]: 8.5 mg/dL; corrected serum calcium value, range of the average [2]: 9.3 to 9.6 mg/dL; corrected serum calcium, test drug groups versus control group [2]: No significant differences could be found; manifestation of hypercalcemia or hypercalciuria [2]: No manifestation of hypercalcemia or hypercalciuria was found; changes in the serum calcium concentration ([3]; 5 or 100 units once a week, high-risk and low-risk patients): no tendency for the serum calcium to rise was seen; hypercalcemia ([3]; once a week, either dose (5 or 100 units), during the administration period): did not cause hypercalcemia; median percentage change in the urinary calcium value [4]: −14.7%; incidence of side effects relative to the control [5]: about twice that of the control

**Q.** Which results are given for “PTH: parathyroid hormone preparation given daily (20 μg/day) in cited trials, conventional daily administration”?
**A.** patients with hypercalcemia [6]: 11%; patients with persistent hypercalcemia [6]: 3%; osteoporosis patients with serum calcium exceeding 11.0 mg/mL after administration [7]: 11.76%
